Columns and labels:
[1] = system: spleen; assay: Spleen size and hematoxylin and eosin histology in SCD mice; format: in vivo, Townes SCD mice
Experimental: (§1) At the end of the 4-week treatment period, approximately 700 μL of blood was collected from each mouse into K3-EDTA tubes (Becton Dickinson, Franklin Lakes, NJ; catalog #365974) by cardiac puncture for plasma isolation after euthanasia using carbon dioxide gas. Subsequently, spleens were harvested for tissue stains, immunohistology, and protein isolation. A part of the spleen was fixed with buffered formaldehyde, embedded in paraffin, and sectioned into ~[…] thick slices for staining with hematoxylin and eosin for histology of spleen structures using a Keyence microscope (Keyence Itasca, IL). The immuno-histology staining was performed on frozen spleen sections using sheep polyclonal antibody against HbF conjugated with FITC (Life Technologies Corporation; catalog #A80-136F) and counterstained with DAPI (4′,6-diamidino-2-phenylindole) to identify the cell nucleus. The spleen tissue was analyzed using the EVOS cell imaging system (ThermoFisher, Waltham, MA) under x40 magnifications. The FITC-positive cells were counted for 15 high-power fields per section, and the mean average of the fields was used for statistical analysis.

[2] = system: Townes SCD mice; assay: Survival, weight and behavior of SCD mice (Study 3); format: in vivo, mouse; conditions: both replicates combined
Experimental: The study design was the same as in Studies 1 and 2, using SCD mice (4–6 months old) dosed once daily by IP injections, with water, HU (100 mg/kg), vehicle (FORM 3), CT-101 in FORM-3 (10 mg/kg), and combined HU and CT-101 administration. The study period was 4 weeks, and two independent replicates were combined for statistical analysis (n = 8–12). Blood collected at weeks 0, 2, and 4 were analyzed for complete blood count and differential, and F-cells and MFI quantified by flow cytometry. Blood stained with acridine orange (BD retic-count reagent) quantified reticulocytes by flow cytometry [31].

[3] = system: HbF; assay: Flow cytometry of F-cells and MFI in peripheral blood of β-YAC mice; format: in vivo, β-YAC transgenic mice; conditions: Study 1; HU 100 mg/kg; week 4; p < 0.001
Experimental: (§2) Each treatment group consisted of six mice per group (3 males and 3 females), and data was combined for 2 replicates for statistical analysis (n = 12). We collected tail vein blood at weeks 0, 2, and 4 and analyzed complete blood counts and differentials using an automated Micros 60 device (HORIBA Medical/ABX Diagnostics, Irvine, CA). The level of F-cells and mean fluorescence intensity (MFI) was determined by flow cytometry as previously published [28].
Flow cytometry was conducted on the FACSCanto machine (BD Biosciences, San Jose, CA) using gating parameters previously published by our group [28]. Briefly, the forward scatter and side scatter were set to gate erythroid cells, then during FLOWJO analysis, ‘log F-cell’‘ histograms (X-axis) generated to measure the percentage of HbF positive cells (F-cells) from total erythroid cells (Y-axis) after gating on the negative isotype control cells. The mean fluorescence intensity (MFI) to quantify the level of HbF protein per cell was generated by FLOWJO software.

[4] = system: Townes SCD mice; assay: Complete blood counts, differentials and reticulocytes in SCD mice (Study 3); format: in vivo, mouse; conditions: HU 100 mg/kg; throughout the study; p < 0.01
Experimental: The study period was 4 weeks, and two independent replicates were combined for statistical analysis (n = 8–12). Blood collected at weeks 0, 2, and 4 were analyzed for complete blood count and differential, and F-cells and MFI quantified by flow cytometry. Blood stained with acridine orange (BD retic-count reagent) quantified reticulocytes by flow cytometry [31].

[5] = system: micronuclei; assay: Micronuclei assay in SCD mouse blood; format: in vivo, Townes SCD mice; conditions: end of treatment; p < 0.05
Text: DNA was stained with propidium iodide/phycoerythrin for simultaneous measurement of cell viability, followed by FACSCAN flow cytometry analysis. Propidium iodide/phycoerythrin supplied in the MN analysis kit (Litron Laboratories, Rochester, NY; catalog #PLUS-M) was used as a positive control for CD71-FITC; the number of MN positive cells were counted in cell positive for CD71 and MN as previously published.

[6] = system: histone H3 and H4; assay: Western blot of histone acetylation in spleen of SCD mice; format: in vivo, Townes SCD mice; conditions: end of treatment
Experimental: The total splenic cells were processed for histone acetylation levels by Western blot as previously published by our group.
Acidic histone extraction was performed according to standard protocols described previously by our group. […] Western blot quantitative data were collected by densitometry analysis using Image J software.

[7] = system: β-YAC transgenic mice; assay: Complete blood counts, differentials and reticulocytes in β-YAC mice (Studies 1 and 2); format: in vivo, mouse
Experimental: as §2

[8] = system: HbF; assay: Immuno-histology of spleen with FITC anti-HbF antibody in SCD mice; format: in vivo, Townes SCD mice; conditions: end of four-week treatment
Experimental: as §1

[9] = system: HbF expression; set-up: method as in PMID 26045597; conditions: adults with SCD; cited from earlier work
[10] = Study 1, HU 100 mg/kg IP five days a week for four weeks

SMILES: NC(=O)NO [HU, hydroxyurea]
- decrease in overall spleen size ([1]; HU 100 mg/kg, four weeks, p < 0.01): 37%
- spleen histology (hematoxylin and eosin) ([1]; end of four-week treatment): decrease in hemorrhagic infarcts and maturing extramedullary hematopoiesis
- survival [2]: 83%
- increase in F-cells [3]: 5.4 fold
- decrease in platelet counts [4]: 50%
- increased production of micronuclei [5]: 1.8 fold
- change in total or acetylated histone H3 and H4 levels in spleen [6]: not statistically significance differences
- change in reticulocyte counts ([7]; Study 1, HU 100 mg/kg): increase
- decrease in hematocrit [7, 10]: 12%
- decrease in hemoglobin [7, 10]: 12%
- decrease in platelets [7, 10]: 30%
- decrease in total white cell counts [7, 10]: 24%
- change in mean corpuscular volume of RBCs ([7]; Study 1, HU 100 mg/kg, p < 0.001): increasing
- effect on total white blood counts and platelets ([7]; Study 2, HU 100 mg/kg alone or with CT-101 10 mg/kg): decrease
- increase in HbF-positive erythroid cells in spleen tissue [8]: 1.8 fold

SMILES: O=C(CCCCCCC(=O)Nc1ccccc1)NO [Vorinostat]
- HbF expression [9]: did not induce HbF expression
